From patent US7683061B2, “Triazine dimers for the treatment of autoimmune diseases” (ProMetic BioSciences Inc., priority 2003, dated 2010)
Like-named read-outs stand apart in the source and are kept apart here.

What was measured:
[1] = tested on: TNFα-induced apoptosis, WEHI-13VAR cells; assay: TNFα induced apoptosis in WEHI-13VAR cells (MTT); type: cell-based, murine; conditions: Mus musculus; for inhibition at 10 µM: 1 × 10^−5M; for inhibition at 20 µM: 2 × 10^−5M; for inhibition at 40 µM: 4 × 10^−5M; for inhibition at 5 µM: 5 × 10^−6M
Protocol: Effect of compounds on TNFα-induced apoptosis was measured by a standard biological assay using WEHI-13VAR cells. These cells undergo apoptosis when they are incubated in the presence of TNFα and actinomycin D. 2×10^4 WEHI-13VAR cells were incubated in RPMI supplemented with 1% sodium pyruvate and 10% FBS, overnight at 37° C. for cell adherence. The cells were then cultured in the presence of 1 μg/mL of actinomycin D (to inhibit protein synthesis) and 0.04 nM TNFα with or without compounds at 37° C. After 16-24 h, 50 μL of a solution of 2 mg/mL of MTT was added to each well and the plate was then incubated for 4 h at 37° C. Only viable cells metabolize MTT to form formazan salt, which is detectable by the measurement of absorbance at 570 nm. After the incubation, the plate was inverted to remove medium and dead cells. 150 μL DMSO was added to each well to stop the reaction and solubilize the formazan salt. Optical density was read on a EL 800, universal Microplate reader (Bio-Tek). A decrease in the optical density is direct evidence of cell apoptosis induced by TNFα. Compounds were also compared to the activity of an anti-TNFα neutralizing antibody.

[2] = tested on: TNFα production, J774A-1 cells; assay: LPS-induced TNFα production in J774A-1 cells (ELISA); type: cell-based; conditions: Mus musculus, J774.A1, 24 h, read-out: IC50 (μM), inhibition of TNFα released by LPS induction
Protocol: Effect of compounds on TNFα production was measured by ELISA using J774-1 cells stimulated by LPS. J774-1 cells were cultured in the presence or absence of LPS and compound. Cells were cultured at 37° C. for 24 h and thereafter the supernatants were collected for the determination of the concentration of TNFα by ELISA as recommended by the manufacturer (BD Biosciences). Data was analyzed in Microsoft Excel and the concentration of compound which inhibits 50% of TNFα production (IC50) was calculated using Prism software.

[3] = biological target: T1, TNFα / p75 TNFα receptor (CD120b) (Homo sapiens, UniProt P01375); assay: Binding ELISA: TNF-α binding to plastic coated TNF-R2; conditions: for inhibition at 100 µM: 10^−4 M; for inhibition at 10 µM: 10^−5 M
T1 sequence (P01375 77-233 limits assumed): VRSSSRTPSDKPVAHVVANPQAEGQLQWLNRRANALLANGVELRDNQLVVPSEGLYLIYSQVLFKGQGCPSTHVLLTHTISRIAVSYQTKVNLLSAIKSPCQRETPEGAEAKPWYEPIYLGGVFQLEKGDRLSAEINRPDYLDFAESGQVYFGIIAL
Protocol: (§1) Compounds were tested for their ability to bind to TNFα or inhibit the interaction of TNFα with its respective receptors; p55 and p75 TNFα receptor. Three binding ELISA assays were undertaken as described by Mancini et al. Biochemical Pharmacology 58, 851-859 (1999). TNFα or receptor (1 μg/mL) was coated on a 96-well plate Maxisorp, overnight at 4° C. After incubation, unbound TNFα or p55 TNFα receptor or p75 TNFα receptor was removed and the plate washed three times with PBS. The plate was then incubated with 100 μL/well of a 2% BSA solution for 1 h at 37° C. to block non specific protein binding. After incubation, the plate was washed three times with PBS. Biotinylated recombinant human TNFα p55 or p75 receptor or biotinylated recombinant human TNFα was added to the wells in the presence or absence of compounds. The plate was incubated for 1 h at 37° C. After incubation, the plate was washed three times with PBS to remove unbound labeled p55 or p75 receptor or recombinant human TNFα. 100 μL of avidin-HRP (diluted 1/2000 in PBS-0.1% BSA) was added to each well and incubated 1 h at 37° C. Bound p55 or p75 receptor or recombinant human TNFα was detected by the addition of 200 μL of 3,3′,5,5′-tetramethylbenzidine (TMB) per well for 15 min. The plate was then read at 655 nm on a EL 800 universal Microplate reader (Bio-Tek, Mississauga, Canada). Data was analyzed in Microsoft Excel and recorded as the percentage of inhibition of p55 or p75 binding to TNFα or TNFα binding to RI (p55) or RII (p75).

[4] = biological target: T2, TNFα / p55 TNFα receptor (CD120a) (Homo sapiens, UniProt P01375); assay: Binding ELISA: TNF-α binding to plastic coated TNF-R1; conditions: for inhibition at 100 µM: 10^−4 M; for inhibition at 10 µM: 10^−5 M
T2 sequence (P01375 77-233 limits assumed): as above
Protocol: as §1

[5] = biological target: T1, TNFα / p75 TNFα receptor (CD120b); assay: Binding ELISA: sTNF-R2 binding to plastic coated TNF-α; conditions: for inhibition at 100 µM: 10^−4 M; for inhibition at 10 µM: 10^−5 M
Protocol: as §1

[6] = biological target: T2, TNFα / p55 TNFα receptor (CD120a); assay: Binding ELISA: sTNF-R1 binding to plastic coated TNF-α; conditions: for inhibition at 100 µM: 10^−4 M; for inhibition at 10 µM: 10^−5 M
Protocol: as §1

[7] = biological target: T3, Fc portion of human IgG (binding of protein A to human IgG); assay: Competitive protein A binding ELISA
T3 construct: fused on or other part: Horseradish peroxidase chemically conjugated to the IgG (HRP-IgG)
Protocol: As described above, this assay evaluates the ability of the exemplified compounds to mimic protein A. Such compounds can bind to the Fc portion of human IgG as ascertained by the inhibition of binding of protein A to human IgG. The competitive protein A binding ELISA assay was performed on a 96-well plate Maxisorp surface to enhance the binding of protein A to the bottom of the plate. The wells were coated with 100 μL of protein A (0.8 μg) and incubated overnight at 4° C. After incubation, unbound protein A was removed by three washes with phosphate buffer saline (PBS). The plate was then incubated with 100 μL/well of a 2% solution of bovine serum albumin (BSA) for 1 h at 37° C. to block non specific protein binding. After incubation, the plate was washed to times with PBS. 50 μL of compound or protein A, diluted in PBS or PBS-20% DMSO at appropriate concentration, were added to the wells followed by addition of 50 μL of peroxidase-conjugated human IgG (HRP-IgG). After 1 h incubation at 37° C., the plate was washed free times with PBS to remove unbound HRP-IgG. Bound HRP-IgG was detected by incubation with 100 μL of 2,2′-Azino-di[3-ethylbenzothiazoline sulfonate]diammonium salt crystals (ABTS) solution for 20 min in the dark at room temperature. The plate was then read at 405 nm on a EL 800, universal Microplate reader (Bio-Tek). Data was analyzed in Microsoft Excel and the concentration of compound which inhibits 50% binding of protein A (IC50) was calculated using Prism software.
Table 1 represents the IC50 of compounds tested in the competitive protein A binding ELISA assay, which consists of a side-by-side analysis in PBS and PBS-20% DMSO. DMSO was used to increase the solubility of some of the compounds.

[8] = tested on: peripheral blood mononuclear leukocytes (PBML); assay: PBML protein synthesis (leucine); type: cell-based, human; conditions: Homo sapiens, Leukocyte
Text: (§2) PBML were obtained from the peripheral blood of healthy volunteers. Blood was submitted to gradient centrifugation with Lympholyte-poly (Cedarlane, Hornby, Canada). The layer, which contains the mononuclear leukocytes, was collected and the cells washed three times in PBS. Cells were then suspended in RPMI (Gibco, Burlington, Canada) supplemented with […] (cyclone, Logan USA). Viability was greater than 99% as determined by trypan blue exclusion.
(§3) PBML were resuspended at 2×10^6 cells mL. 100 μL of PBML (2×10^5 cells) were incubated in a 96-well microtiter plate for 48 h in the presence or absence of compound or protein A. Cells were quiescent or stimulated with concanavalin A (ConA; T-cells) or pokeweed mitogen (PWM; B-cells). After incubation, cells were treated with MTT (cytotoxicity) or pulsed with 1 μCi of [^3]-thymidine (DNA synthesis), [^3H]-uridine (RNA synthesis) or [^3]-leucine (protein synthesis) for 6 h. Plates were harvested on a Tomteck and counted on a Microbeta β-counter.

[9] = tested on: peripheral blood mononuclear leukocytes (PBML); assay: PBML RNA synthesis (uridine); type: cell-based, human; conditions: for IC50: Homo sapiens, Leukocyte
Text: as §2, §3

[10] = PBML cytotoxicity (MTT); type: cell-based; conditions: human
Text: as §2, §3

[11] = tested on: peripheral blood mononuclear leukocytes (PBML); assay: PBML DNA synthesis (thymidine); type: cell-based, human; conditions: for IC50: Homo sapiens, Leukocyte
Text: as §2, §3

[12] = Table 1, PBS-20% DMSO, read-out: IC50 (μM): Assay in PBS-20% DMSO
[13] = Table 1, PBS, read-out: IC50 (μM): Assay in PBS
[14] = resting and stimulated (ConA and PWM) PBML

SMILES | IC50 [2] | inhibition at 100 µM [3] | inhibition at 10 µM [3] | inhibition at 100 µM [4] | inhibition at 10 µM [4] | inhibition at 100 µM [5] | inhibition at 10 µM [5] | inhibition at 100 µM [6] | inhibition at 10 µM [6] | IC50 [7, 12] | IC50 [7, 13] | inhibition at 10 µM [1] | inhibition at 20 µM [1] | inhibition at 40 µM [1] | inhibition at 5 µM [1] | further results
COC(=O)c1ccccc1Nc1nc(NCCNc2nc(N)nc(NCCc3ccc(O)cc3)n2)nc(NCCc2ccc(O)cc2)n1 [Compound 3] | 28 µM | – | – | – | – | – | – | – | – | – | – | 32.7% | 44.6% | 33.9% | 0.5% | –
NCCc1ccc(Nc2nc(NCCNc3nc(Nc4ccccc4)nc(Nc4ccc(CCN)cc4)n3)nc(Nc3ccccc3)n2)cc1 [Compound 4] | 94.4 µM | -105% | -86.7% | -69.4% | -47.4% | 5.26% | 2.06% | 2.19% | 4.5% | 40 µM | 44 µM | 11.2% | 25.3% | 44% | 2.4% | –
Cc1ccccc1Nc1nc(NCCNc2nc(NCCc3ccc(O)cc3)nc(Nc3ccccc3C)n2)nc(NCCc2ccc(O)cc2)n1 [Compound 5] | 44 µM | 38.5% | 21.2% | 15.4% | 4.6% | 2.68% | 4.31% | 1.54% | 2.95% | 36 µM | – | 35.1% | 38.7% | 35.4% | 28.9% | –
Nc1ccc(CCNc2nc(NCCNc3nc(NCCc4ccc(N)cc4)nc(Nc4cccc(N)c4)n3)nc(Nc3cccc(N)c3)n2)cc1 [Compound 7] | – | 36.9% | 43.3% | 32.6% | 10.4% | – | – | – | – | 0.02 µM | 0.2 µM | – | – | – | – | IC50 ([8]; ConA stimulated PBML): > 10 µM; IC50 ([8]; PWM stimulated PBML): > 10 µM; IC50 ([8]; Resting PBML): > 10 µM; IC50 ([9]; ConA stimulated PBML): 1500 nM; IC50 ([9]; PWM stimulated PBML): 1780 nM; IC50 ([9]; Resting PBML): 1120 nM; effect on RNA synthesis (in words) [9, 14]: suppress; IC50 at 48 h ([10]; ConA stimulated PBML): > 10 µM; IC50 at 48 h ([10]; PWM stimulated PBML): > 10 µM; IC50 at 48 h ([10]; Resting PBML): > 10 µM; IC50 ([11]; ConA stimulated PBML): 3.52 µM; IC50 ([11]; PWM stimulated PBML): 1.28 µM; IC50 ([11]; Resting PBML): 3.6 µM; effect on DNA synthesis (in words) [11, 14]: suppress; IC50 ([7]; Table 2, PBS-20% DMSO, n = 5 or 6, read-out: IC50 (n = 5 or 6) PBS-20% DMSO): 0.0217 µM; IC50 ([7]; Table 2, PBS, n = 5 or 6, read-out: IC50 (n = 5 or 6) PBS): 0.187 µM
Nc1ccc(CCNc2nc(Nc3ccccc3)nc(Nc3ccc(CCNc4nc(NCCO)nc(Nc5ccccc5)n4)cc3)n2)cc1 [Compound 17] | 57.1 µM | – | – | – | – | – | – | – | – | 12 µM | 53 µM | – | – | – | – | –
Oc1ccc(CCNc2nc(Nc3ccccc3)nc(Nc3ccc(Nc4nc(NCCc5ccc(O)cc5)nc(Nc5ccccc5)n4)cc3)n2)cc1 [Compound 28] | 28.8 µM | – | – | – | – | – | – | – | – | 35 µM | – | – | – | – | – | –

Second part, led by results:

IC50 [2] | inhibition at 100 µM [3] | inhibition at 10 µM [3] | inhibition at 100 µM [4] | inhibition at 10 µM [4] | inhibition at 100 µM [5] | inhibition at 10 µM [5] | inhibition at 100 µM [6] | inhibition at 10 µM [6] | IC50 [7, 12] | IC50 [7, 13] | SMILES | inhibition at 10 µM [1] | inhibition at 20 µM [1] | inhibition at 40 µM [1] | inhibition at 5 µM [1] | further results
3.4 µM | 3.8% | -30.4% | -8.4% | -35.7% | – | – | – | – | 39 µM | 23 µM | CN(C)CCCC(=O)Oc1ccc(CCNc2nc(NCCNc3nc(NCCc4ccc(OC(=O)CCCN(C)C)cc4)nc(Nc4ccccc4)n3)nc(Nc3ccccc3)n2)cc1 [Compound 12] | -21.1% | -28.4% | -30% | 36.9% | –
10.2 µM | – | – | – | – | – | – | – | – | 43 µM | 26 µM | Oc1ccc(CCNc2nc(NCCc3ccc(Nc4nc(Nc5ccccc5)nc(N5CCNCC5)n4)cc3)nc(Nc3ccccc3)n2)cc1 [Compound 18] | – | – | – | – | –
15.9 µM | 49.2% | 4.8% | 22.9% | 3.95% | 4.22% | 6.76% | 5.65% | 6.74% | – | – | Oc1ccc(CCNc2nc(NCCCNc3nc(NCCc4ccc(O)cc4)nc(Nc4ccccc4)n3)nc(Nc3ccccc3)n2)cc1 [Compound 25] | 22.8% | -0.7% | -17.8% | 27.5% | –
20.6 µM | – | – | – | – | – | – | – | – | 18 µM | 18 µM | Nc1ccc(CCNc2nc(Nc3ccccc3)nc(N3CCN(c4nc(NCCO)nc(Nc5ccccc5)n4)CC3)n2)cc1 [Compound 33] | – | – | – | – | –
